Measured values as given in US9845297B2, “Antimicrobial compounds and methods of making and using the same” (Melinta Therapeutics, Inc., priority 2009, dated 2017).

System: Eschericia coli strain ATCC25922
Assay: standard microdilution assay to determine minimum inhibitory concentrations (MICs)
Assay type: cell-based
Details: Escherichia coli, ATCC25922, Eschericia coli strain ATCC25922, standard microdilution assay; read-out: E. coli ATCC25922 MIC
Procedure: Minimum inhibitory concentrations (MICs) are determined by the microdilution method, typically in a final volume of 100 microliters, according to protocols outlined by The Clinical and Laboratory Standards Institute [CLSI; formerly the National Committee for Clinical Laboratory Standards (NCCLS)]. See CLSI: Methods for dilution antimicrobial susceptibility tests for bacteria that grow aerobically; approved standard-fifth edition. Wayne, Pa.: NCCLS; 2000. The assays can be also be performed in microtiter trays according to conventional methodologies as published by the CLSI. See CLSI. Methods for Dilution Antimicrobial Susceptibility Tests for Bacteria That Grow Aerobically; Approved Standard-Seventh Edition. CLSI Document M7-A7 [ISBN 1-56238-587-9] CLSI, 940 West Valley Road, Suite 1400, Wayne Pa. 19087-1898 USA, 2006).
The compounds of the present invention were tested for antimicrobial activity. The compounds were run against Eschericia coli strain ATCC25922 using a standard microdilution assay to determine minimum inhibitory concentrations (MICs). […] A “N/A” means that data is unavailable. It will be recognized by one skilled in the art that the compounds can be assessed against other bacterial organisms and that the presentation of data for activity against Eschericia coli is illustrative and in no way is intended to limit the scope of the present invention. The compounds of the present invention can be assayed against a range of other microorganisms depending upon the performance activity desired to be gathered. Furthermore, the “+”, “−”, and “N/A” representation and the selection of a cutoff value of 16 micrograms/ml is also illustrative and in no way is intended to limit the scope of the present invention.

Compound | MIC
Cc1ccc(NC(=O)Nc2nc(=O)c(-c3ccc(CNCCCN)c(F)c3)c[nH]2)cc1C(F)(F)F [Compound 481] | > 16 µg/mL
O=C(Nc1nc(=O)c(-c2ccc(CNCc3ccncc3)cc2)c[nH]1)Nc1cc(F)c(F)cc1F [Compound 329] | > 16 µg/mL
NCCCCN1CCN(c2c[nH]c(NC(=O)Nc3ccccc3OC(F)(F)F)nc2=O)CC1 [Compound 522] | > 16 µg/mL
NCCCNCc1ccc(-c2c[nH]c(NC(=O)Nc3ccccc3OC(F)(F)F)nc2=O)cc1F [Compound 246] | < 16 µg/mL
O=C(Nc1nc(=O)c(-c2ccc(CNCC(O)CO)cc2)c[nH]1)Nc1ccccc1OC(F)(F)F (centres unmarked) [Compound 283] | > 16 µg/mL
NCCCN(Cc1ccc(-c2c[nH]c(NC(=O)Nc3cc(F)c(F)cc3F)nc2=O)cc1)Cc1nccs1 [Compound 339] | > 16 µg/mL
NCCCNCc1ccc(-c2c[nH]c(NC(=O)Nc3cccc(-n4cccc4)c3)nc2=O)cc1F [Compound 418] | > 16 µg/mL
COc1nc(Nc2nc3ccccc3o2)ncc1-c1ccc(CNCCCN)c(F)c1 [Compound 589] | > 16 µg/mL
O=C(Nc1nc(=O)c(-c2ccc(CNCCCc3cccnc3)cc2)c[nH]1)Nc1cc(F)c(F)cc1F [Compound 373] | > 16 µg/mL
NCCCCN1CCC(c2c[nH]c(NC(=O)Nc3ccccc3OC(F)(F)F)nc2=O)CC1 [Compound 537] | > 16 µg/mL
NCCCNCc1ccc(-c2c[nH]c(NC(=O)Nc3ccc(F)c(F)c3F)nc2=O)cc1F [Compound 462] | > 16 µg/mL
NCCCN(CCCN)Cc1ccc(-c2c[nH]c(Nc3nc4ccccc4[nH]3)nc2=O)cc1F [Compound 351] | < 16 µg/mL
NC[C@@H](N)C(=O)Nc1ccc(-c2c[nH]c(NC(N)=O)cc2=O)cc1 [Compound 162] | > 16 µg/mL
NCCCN(CCCN)Cc1ccc(-c2c[nH]c(NC(=O)Cc3ccc(C(F)(F)F)cc3)nc2=O)cc1 [Compound 205] | > 16 µg/mL
NCCCN(CCCc1cccnc1)Cc1ccc(-c2c[nH]c(NC(=O)Nc3ccccc3OC(F)(F)F)nc2=O)cc1 [Compound 372] | > 16 µg/mL
NCCCNCc1ccc(-c2c[nH]c(NC(=O)Nc3ccccc3OC(F)(F)F)nc2=O)cc1 [Compound 278] | < 16 µg/mL
NCCCNCc1ccc(-c2c[nH]c(NC(=O)NCCc3nc4ccccc4[nH]3)nc2=O)cc1F [Compound 555] | > 16 µg/mL
NCCCCN1CCC(c2c[nH]c(Nc3nc4ccccc4[nH]3)nc2=O)CC1 [Compound 509] | > 16 µg/mL
NCCCNCc1ccc(-c2c[nH]c(NC(=O)NCCc3ccccc3OC(F)(F)F)nc2=O)cc1F [Compound 512] | > 16 µg/mL
N=C(N)NCCCN1CCN(C(=O)Cc2c[nH]c(NC(=O)Nc3ccccc3OC(F)(F)F)nc2=O)CC1 [Compound 429] | > 16 µg/mL
CN(C)CCCOc1ccccc1NC(=O)Nc1nc(=O)c(-c2ccc(CNCCCN)cc2)c[nH]1 [Compound 1291] | > 16 µg/mL
NCCCNCc1ccc(-c2c[nH]c(NC(=O)Nc3cc(F)c(F)cc3F)nc2=O)cc1C(F)(F)F [Compound 266] | < 16 µg/mL
NCCCNCc1ccc(-c2c[nH]c(Nc3nc4cc(F)c(F)cc4o3)nc2=O)cc1 [Compound 454] | < 16 µg/mL

Compound | MIC
NCCCNCc1ccc(-c2c[nH]c(Nc3nc4ccccc4o3)nc2=O)cc1F [Compound 588] | < 16 µg/mL
O=C(Nc1nc(=O)c(-c2ccc(CNCCC3CC3)cc2)c[nH]1)Nc1ccccc1OC(F)(F)F [Compound 441] | > 16 µg/mL
NCCCNCc1ccc(-c2c[nH]c(Nc3nc4cc(F)c(F)cc4[nH]3)nc2=O)cc1F [Compound 439] | < 16 µg/mL
NCCCNCc1ccc(-c2c[nH]c(NC(=O)Nc3cccc(Cl)c3F)nc2=O)cn1 [Compound 552] | > 16 µg/mL
NCCCN1CCN(C(=O)Cc2c[nH]c(NC(=O)Nc3ccccc3OC(F)(F)F)nc2=O)CC1 [Compound 405] | > 16 µg/mL
COc1cc2nc(Nc3nc(=O)c(-c4ccc(CN(CCCN)CCCN)c(F)c4)c[nH]3)[nH]c2cc1OC [Compound 370] | > 16 µg/mL
CCOc1ccc(NC(=O)Nc2nc(=O)c(-c3ccc(CNCCCN)c(F)c3)c[nH]2)c([N+](=O)[O-])c1 [Compound 414] | > 16 µg/mL
NCCCN(Cc1ccc(-c2c[nH]c(NC(=O)Nc3cc(F)c(F)cc3F)nc2=O)cc1)Cc1ncc[nH]1 [Compound 325] | > 16 µg/mL
O=C(Nc1nc(=O)c(-c2ccc(CNCCCO)cc2)c[nH]1)Nc1ccccc1OC(F)(F)F [Compound 277] | > 16 µg/mL
NCCCN(CCCN)Cc1ccc(-c2c[nH]c(Nc3nc4ccc(C(F)(F)F)cc4o3)nc2=O)cc1F [Compound 404] | > 16 µg/mL
NCCCNCc1ccc(-c2c[nH]c(Nc3nc4ccccc4[nH]3)nc2=O)c(F)c1 [Compound 493] | < 16 µg/mL
NCc1ccc(-n2ccc(NC(=O)NC3CCCNC3)nc2=O)cc1 (centres unmarked) [Compound 1305] | > 16 µg/mL
NCc1ccc(-c2c[nH]c(NC(=O)NC3CCCC[C@H]3NCC(F)(F)F)nc2=O)cc1 (some centres unmarked) [Compound 1357] | > 16 µg/mL
NCCCNCc1ccc(-c2c[nH]c(NC(=O)NCc3ccc(Cl)c(Cl)c3)nc2=O)cc1F [Compound 464] | > 16 µg/mL
NCCCNCc1ccc(-c2c[nH]c(NC(=O)NCCc3ccc(Cl)c(Cl)c3)nc2=O)cc1F [Compound 451] | < 16 µg/mL
NCCCN1CCN(c2c[nH]c(NC(=O)Nc3ccccc3OC(F)(F)F)nc2=O)CC1 [Compound 425] | > 16 µg/mL
O=C(Nc1nc(=O)c(CCN2CCNCC2)c[nH]1)Nc1ccccc1OC(F)(F)F [Compound 368] | > 16 µg/mL
NCCCNCc1ccc(-c2c[nH]c(NC(=O)Nc3ccccc3OC(F)(F)F)nc2=O)cn1 [Compound 553] | > 16 µg/mL
NCCCNCc1ccc(-c2c[nH]c(NC(=O)Nc3cccc(Cl)c3Cl)nc2=O)cc1C(F)(F)F [Compound 259] | < 16 µg/mL
O=C(Nc1nc(=O)c(-c2ccc(CNCCc3c[nH]c(=O)[nH]3)cc2)c[nH]1)Nc1ccccc1OC(F)(F)F [Compound 448] | > 16 µg/mL
NCCCNCc1ccc(-c2c[nH]c(NC(=O)Nc3cc(F)c(F)cc3F)nc2=O)c(F)c1 [Compound 434] | > 16 µg/mL
NCCCNCc1ccc(-c2c[nH]c(NC(=O)Nc3cc(F)c(F)cc3F)nc2=O)cc1 [Compound 239] | > 16 µg/mL

Other lines, results leading:

MIC | Compound
> 16 µg/mL | N=C(N)NCCCCCN1CCN(c2c[nH]c(NC(=O)Nc3ccccc3OC(F)(F)F)nc2=O)CC1 [Compound 519]
> 16 µg/mL | NCCCCCN1CCC(c2c[nH]c(Nc3nc4ccccc4[nH]3)nc2=O)CC1 [Compound 499]
< 16 µg/mL | CN1CCN(c2ccc(C(=O)Nc3ccn(CCC[C@H](CCCNC(=N)N)NCCCN)c(=O)n3)cc2)CC1 [Compound 190]
> 16 µg/mL | N=C(N)NCCC[C@@H](CCCn1ccc(NC(=O)Nc2ccc(C(F)(F)F)cc2)nc1=O)NCCCN [Compound 165]
> 16 µg/mL | NCCC[C@H](N)CCCn1cnc(N)nc1=O [Compound 113]
> 16 µg/mL | N=C(N)NCCCC[C@H](CCn1ccc(NC(N)=O)nc1=O)NCCCN [Compound 125]
> 16 µg/mL | N=C(N)NCCCN(CCCN)Cc1ccc(-c2c[nH]c(NC(=O)NCCc3ccc(Cl)cc3Cl)nc2=O)cc1 [Compound 476]
> 16 µg/mL | NCCCC(N)c1ccc(-n2ccc(NC(N)=O)nc2=O)cc1 (centres unmarked) [Compound 146]
< 16 µg/mL | NCCCN(CCCNC(N)N)Cc1ccc(-c2c[nH]c(Nc3nc4ccccc4[nH]3)nc2=O)cc1 [Compound 474]
> 16 µg/mL | N=C(N)NCCCCCN1CCC(c2c[nH]c(NC(=O)Nc3cc(F)c(F)cc3F)nc2=O)CC1 [Compound 545]
> 16 µg/mL | N=C(N)NCCCCN1CCN(c2c[nH]c(Nc3nc4ccccc4[nH]3)nc2=O)CC1 [Compound 531]
> 16 µg/mL | N=C(N)NCCCNC1CCN(c2c[nH]c(NC(=O)Nc3ccccc3OC(F)(F)F)nc2=O)C1 (centres unmarked) [Compound 431]
> 16 µg/mL | N=C(N)NCCC[C@H](N)CCCn1cnc(N)nc1=O [Compound 114]
< 16 µg/mL | N#Cc1ccc(NC(=O)Nc2nc(=O)c(-c3ccc(CN(CCCN)CCCNC(=N)N)cc3)c[nH]2)cc1 [Compound 452]
> 16 µg/mL | CN(C(=O)C[C@H](CCCNC(=N)N)NC(=O)CCN1CCNCC1)C1CNC(NC(N)=O)=NC1=O (some centres unmarked) [Compound 108]
> 16 µg/mL | NC(=O)NC1CCN(CCC[C@@H](N)CCCO)C(=O)N1 (some centres unmarked) [Compound 136]
> 16 µg/mL | Cc1c(C(=O)Nc2ccn(CCC[C@H](CCCNC(=N)N)NCCCN)c(=O)n2)ccn1-c1ccc(Cl)cc1 [Compound 158]
< 16 µg/mL | CN(CCCN(CCCN)Cc1ccc(-c2c[nH]c(NC(=O)Nc3ccccc3OC(F)(F)F)nc2=O)cc1)C(=N)N [Compound 365]
> 16 µg/mL | N=C(N)NCCCN(CCCN)Cc1ccc(-c2c[nH]c(NC(=O)NCCc3ccc(F)cc3)nc2=O)cc1 [Compound 465]
> 16 µg/mL | N=C(N)NCCCC(CCCn1ccc(NC(=O)c2ccc(N3CCOCC3)cc2)nc1=O)NCCCN (centres unmarked) [Compound 189]
< 16 µg/mL | CN(C)CCN1CCN(c2ccc(NC(=O)Nc3ccn(CCCC(CCCNC(=N)N)NCCCN)c(=O)n3)cc2)CC1 (centres unmarked) [Compound 208]
< 16 µg/mL | N=C(N)NCCCN(CCCN)Cc1ccc(-c2c[nH]c(NC(=O)Nc3ccccc3OC(F)(F)F)nc2=O)cc1 [Compound 349]
> 16 µg/mL | NCCCNCc1ccc(-n2cc(F)c(N)nc2=O)cc1 [Compound 137]
